Test results from patent EP1056700B1, “MEDICINAL USES OF PHENYLALKANOLS AND DERIVATES” (ZingoTX Pty Ltd, priority 1997, dated 1999).
Values joined by “and” are separate entries in the source; they are usually repeats but may differ in a detail not shown here. Equal values may be shown once.

Key:
guinea pig atria = assay: Organ bath assay on isolated guinea pig atria (rate and force of contraction); details: for FORCE OF CONTRACT^n / HEART RATE: result in words
In short: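 Test substances (DMSO, final 2.5 %) applied up to a maximum of 50 µM. Preparation: isolated atria of young (3-4 wk) male guinea pigs under 1 g resting tension in carbogen-oxygenated Krebs-Henseleit, baseline stable 20 min. Read-outs: beating rate and contractile force.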

[1] = Brine shrimp toxicity bioassay; format: in vivo; details: Artemia salina (brine shrimp), in vivo; 24 hours, 2% DMSO
Source text: The brine shrimp assay procedure determines LC50 values of active compounds. Activities of a broad range of known active compounds are manifested as toxicity to brine shrimp (Artemia salina Leach). There are many applications of the assay including analysis of toxic substances, anaesthetics, morphine-like substances and cocarcinogenicity of phorbol esters.
The method for testing solvent toxicity used was basically that reported by J L McLaughlin in Methods of Plant Biochemistry (1991), vol. 6 (K Hostettman, ed.), Academic Press, London, 1-32. DMSO solutions of the substances to be tested were added directly to the vials containing the brine shrimp. As the concentration of DMSO that we wished to use was higher than the recommended 1% v/v testing of the toxicity of the DMSO was therefore necessary. The concentrations of DMSO tested on the shrimp, along with the results from the assay which was done in duplicate are listed below.
Brine shrimp toxicity was assayed, except for some minor modifications, according to the method of McLaughlin et al as reported in Brine Shrimp: A convenient bioassay for active plant constituents, B N Meyer, N R Ferrigni, J E Putnam, L B Jacobsen, D E Nichols and J L McLaughlin in Planta Medica (1982), 45, 31-34 and Crown gall tumours on potato discs and brine shrimp lethality: Two simple bioassays for higher plant screening and fractionation. J L McLaughlin. Methods of Plant Biochemistry (1991), vol. 6 (K Hostettman, ed.), Academic Press, London, 1-32. Ten shrimp were transferred to each of the vials and the volume adjusted to 4.9 mL. Each dose was performed in triplicate, including the control. In quick succession, the appropriate volume of additional DMSO for each dose, required to achieve a final concentration of 2%, was added before the appropriate volume of test solution. The vials were gently mixed and the time noted. After 24 hours, the number of survivors were counted and % mortality was determined. The test compounds were assayed at concentrations of 100 µM, 25 µM, 5 µM, 1 µM and 0.2 µM (and where appropriate concentrations of 0.04 µM and 0.008 µM).
The brine shrimp were able to survive without food in the vials over the 24 hour period and were therefore not fed.
The dose-response curves were constructed using the Sigmaplot computer program and the LC50 value was calculated from the intersection point of the curve and the 50 % mortality line. The LC50 values were expressed in both µM and µg/mL.

DRG neuronal cells = assay: Peak [Ca^2+]i transients in cultured dorsal root ganglion neurons (Fura-2); format: cell-based, rat; details: for Number of capsaicin-sensitive cells responding / Peak [Ca^2+]i (Average ±SD): 2 mM Ca^2+
Method: DRG from neonatal (3-5 days old) rat or adult Sprague-Dawley rats were incubated in Hanks CMF saline with 0.05% collagenase and 0.25% trypsin for 25 min at 37° C. Individual cells were obtained by trituration with fire polished Pasteur pipettes of diminishing diameters. Neurones were isolated from the cell suspension in 30% Percoll and then plated on collagen coated coverslips or in 24-well plates, then cultured in neurobasal medium with B27 supplement, 50 ng/ml 2.5 S nerve growth factor, 2 mM 1-glutamine and 100 U/ml penicillin/streptomycin. Cultures were maintained at 37° C with 5% CO2. 30% Percoll increases the percentage of capsaicin-sensitive DRG neurones up to 70%. For peak [Ca^2+]i transients measurements, cells on coverslips were incubated with 5 µM Fura-2 AM for 30 min at 37° C. The coverslips were then mounted on a chamber attached to a fast sample application perfusion system which allows changing solutions in the second range. Recordings were made on the stage of a Nikon Diaphot inverted microscope fitted with a Nikon 40 x Fluo (NA 0.85) DL Ph3 or 40 x Fluo (NA 1.3) oil objective. [Ca^2+]i was calculated from dual excitation wavelength (340/380 nm) fluorescence measurements following an intracellular calibration procedure by the Grynkiewicz equation, using MCID M2/M4 v.3.0 (Imaging Res. Inc.) software. Cells were continuously perfused with a solution consisting of 140 mM NaCl, 2 mM CaCl2, 5 mM KCl, 20 mM HEPES, 10 mM glucose, pH 7.4. To study KCl evoked depolarisation, 50 mM NaCl was replaced by equimolar KCl. Cytoplasmic localisation of Fura-2 was tested with the Mn^2+ quenching technique (Dedov and Roufogalis, 1998). All experiments were performed at room temperature (20-23°C).
Typical changes in [Ca^2+]i upon depolarisation were evoked by 50 mM KCl and by application of 1 µM capsaicin; both were applied for 30 sec. Capsaicin-evoked peak [Ca^2+]i transients are characterised by a fast rise and long-steady state [Ca^2+]i clearance from the cytoplasm. In capsaicin-sensitive cells the half-time of cytoplasmic Ca^2+ clearance was proportional to the amplitudes of peak [Ca^2+]i transients.
To examine the effect of gingerol derivatives, one or several compounds in succession at a concentration of 10 µM were applied for 1 min to the DRG neuronal cells followed by washing out for 4 min with physiological solution. To the capsaicin-sensitive cells, 10 µM capsaicin and 50 mM KCl were applied, respectively, to confirm the viability of the cells. In addition, morphological appearances of the cells were also examined at the end of experiment. […]

SMILES | FORCE OF CONTRACT^n (guinea pig atria; guinea pig atria) | HEART RATE (guinea pig atria; guinea pig atria) | LC50 at 24 h [1] | Number of capsaicin-sensitive cells responding (DRG neuronal cells; 10 µM applied for 1 min) | Peak [Ca^2+]i (Average ±SD) (DRG neuronal cells; 10 µM applied for 1 min) [nM] | also measured
CCCCCCCC(O)CC(=O)CCc1cccc(OC)c1O (stereo not shown) [[8]-orthogingerol, 5-hydroxy-1-(2-hydroxy-3-methoxyphenyl)dodecan-3-one] | inactive | inactive | 9.6 µM and 3.1 µg/mL | 2 | 245 ± 64 | –
CCCCCCCC(O)CC(=O)CCc1ccc(O)cc1 (stereo not shown) [[8]-demethoxygingerol, 5-hydroxy-1-(4-hydroxyphenyl)dodecan-3-one] | inactive | inactive | 25 µM and 7.3 µg/mL | 2 | 243 ± 71 | –
CCCCCCCC(O)CC(=O)CCc1ccc(OC)c(O)c1 (stereo not shown) [[8]-isogingerol, 5-hydroxy-1-(3-hydroxy-4-methoxyphenyl)dodecan-3-one, reference compound] | inactive | inactive | 11 µM and 3.5 µg/mL | 2 | 281 ± 42 | –
CCCCCCCC(O)CC(=O)CCc1ccc(O)c(OC)c1 (stereo not shown) [[8]-gingerol, 5-hydroxy-1-(4-hydroxy-3-methoxyphenyl)dodecan-3-one, reference compound] | – | – | 64 µM and 21 µg/mL | 7 | 279 ± 111 | FORCE OF CONTRACT^n ↑ increase (guinea pig atria; @ 3 (µM), guinea pig atria): ↑160% @ 3; HEART RATE ↑ increase (guinea pig atria; @ 3 (µM), guinea pig atria): ↑31% @ 3; time to increased cardiac contractility after addition of the drug (guinea pig atria; guinea pig atria): 15 s
CCCCCCCC(=O)CC(O)CCc1ccc(O)c(OC)c1 (stereo not shown) [3-hydroxy-1-(4-hydroxy-3-methoxyphenyl)dodecan-5-one] | – | – | 67 µM and 22 µg/mL | 5 | 167 ± 105 | FORCE OF CONTRACT^n ↑ increase (guinea pig atria; @ 5 (µM), guinea pig atria): ↑270% @ 5; FORCE OF CONTRACT^n ↑ increase (guinea pig atria; @ 10 (µM), guinea pig atria): ↑130% @ 10; HEART RATE ↑ increase (guinea pig atria; @ 10 (µM), guinea pig atria): ↑30% @ 10
CCCCCCCCCC(O)CCc1ccc(O)c(OC)c1 (stereo not shown) [1-(4-hydroxy-3-methoxyphenyl)dodecan-3-ol] | – | – | > 100 µM and > 31 µg/mL | – | – | FORCE OF CONTRACT^n ↑ increase (guinea pig atria; @ 10 (µM), guinea pig atria): ↑180% @ 10; HEART RATE ↑ increase (guinea pig atria; @ 10 (µM), guinea pig atria): ↑50% @ 10; increase on driven guinea pig left atria (guinea pig atria; at 1 µM, followed by arrhythmia): 50%; potency of one enantiomer versus the other in increasing the force of contraction (guinea pig atria; guinea pig atria): 100 fold; arrhythmia (guinea pig atria; guinea pig atria, after addition of a dose): followed by arrhythmia; Number of capsaicin-sensitive cells responding (DRG neuronal cells; high responses, 10 µM): 5; Peak [Ca^2+]i (Average ±SD) (DRG neuronal cells; high responses, 10 µM): 661 ± 376 (high responses) nM; evoked [Ca^2+]i transients (DRG neuronal cells; in Ca^2+-free medium or on application of ruthenium red (1 µM)): abolished or greatly diminished; Number of capsaicin-sensitive cells responding (DRG neuronal cells; low responses, 10 µM): 10; Peak [Ca^2+]i (Average ±SD) (DRG neuronal cells; low responses, 10 µM): 187 ± 66 (low responses) nM; [Ca^2+]i in capsaicin-sensitive DRG cells (DRG neuronal cells; result in words): increased intracellular calcium
CCCCCCCC(O)CC(O)CCc1ccc(O)c(OC)c1 (stereo not shown) [[8]-gingerdiol, 1-(4-hydroxy-3-methoxyphenyl)dodecane-3,5-diol, reference compound] | inactive | inactive | – | 2 | 246 ± 35 | –
CCCCCCCC(O)CC(=O)CCc1ccc2c(c1)OCO2 (stereo not shown) [5-hydroxy-1-(3,4-methylenedioxyphenyl)dodecan-3-one] | – | – | 3 µM and 0.96 µg/mL | 2 | 225 ± 78 | –
CCCCCC(O)CC(=O)CCc1ccc(O)c(OC)c1 (stereo not shown) [[6]-gingerol, 5-hydroxy-1-(4-hydroxy-3-methoxyphenyl)decan-3-one, reference compound] | – | – | > 100 µM and > 29 µg/mL | – | – | FORCE OF CONTRACT^n ↑ increase (guinea pig atria; @ 50 (µM), guinea pig atria): ↑86% @ 50; HEART RATE ↑ increase (guinea pig atria; @ 50 (µM), guinea pig atria): ↑10% @ 50
CCCCCCCC(O)CC(=O)C=Cc1ccc(O)c(OC)c1 (stereo not shown) [[8]-dehydrogingerol, 5-hydroxy-1-(4-hydroxy-3-methoxyphenyl)dodecan-1-ene-3-one, reference compound] | – | – | 41 µM and 13 µg/mL | – | – | FORCE OF CONTRACT^n ↑ increase (guinea pig atria; @ 25 (µM), guinea pig atria): ↑80% @ 25; HEART RATE ↑ increase (guinea pig atria; @ 25 (µM), guinea pig atria): ↑17% @ 25; time for tension to reach maximum after addition of a dose (guinea pig atria; guinea pig atria): a few mins
CCCCCCCC(O)CCCCc1ccc(O)c(OC)c1 (stereo not shown) [1-(4-hydroxy-3-methoxyphenyl)dodecan-5-ol] | – | ↑weakly | 6.6 µM and 2 µg/mL | 0 out of 5 | 0 | FORCE OF CONTRACT^n ↑ increase (guinea pig atria; @ 30 (µM), guinea pig atria): ↑79% @ 30
CCCCCCCC(O)CC(=O)c1ccc(O)c(OC)c1 (stereo not shown) [3-hydroxy-1-(4-hydroxy-3-methoxyphenyl)decan-1-one] | negative inotropic activity | negative chronotropic activity | 66 µM and 19 µg/mL | 0 out of 5 | 0 | FORCE OF CONTRACT^n ↓ decrease (guinea pig atria; @ 10 (µM), guinea pig atria): ↓11% @ 10; HEART RATE ↓ decrease (guinea pig atria; @ 10 (µM), guinea pig atria): ↓5% @ 10; FORCE OF CONTRACT^n ↓ decrease (guinea pig atria; @ 30 (µM), guinea pig atria): ↓13% @ 30; increase on driven guinea pig left atria (guinea pig atria; at 10 µM): 50%
